In patent US20260337245A1, “POLYPEPTIDE OR ANALOG THEREOF AND USE THEREOF” (Shenzhen Bay Laboratory, priority 2024, published 2026):
Starred links: 1 amine or outer side, 2 acyl side, 3 side chain; linkers in the order of their positions; H or OH if unused. Positions of bridges follow the written chain, without caps; N, C: chain ends. Non-standard residues stand in square brackets, D forms with d. Residues, ends and D or L forms follow the SMILES beside them. X1 = O=C(O)CCCCCCCCCCCCCCCCCCC(=O)N[C@@H](CCCCNC(=O)COCCOCCNC(=O)COCCOCCNC(=O)CCC(=O)N(CCNC(=O)C[*:1])CCNC(=O)C[*:2])C(=O)O; NMeR = CN[C@@H](CCCNC(=N)N)C(=O)O; Hyp = O=C(O)[C@@H]1C[C@@H](O)CN1; αMeK = C[C@](N)(CCCCN)C(=O)O; Aib = CC(C)(N)C(=O)O

Key:
AMY3R = biological target: T1, AMY3R (Homo sapiens, UniProt P30988); test: HTRF cAMP assay, AMY3R; type: cell-based; details: HEK293/pGM-CREB-L-Luc/AMY3R pool, read-out: IC50 of receptor AMY3R
T1 construct: expressed in transfected cells
T1 sequence (P30988 25-474): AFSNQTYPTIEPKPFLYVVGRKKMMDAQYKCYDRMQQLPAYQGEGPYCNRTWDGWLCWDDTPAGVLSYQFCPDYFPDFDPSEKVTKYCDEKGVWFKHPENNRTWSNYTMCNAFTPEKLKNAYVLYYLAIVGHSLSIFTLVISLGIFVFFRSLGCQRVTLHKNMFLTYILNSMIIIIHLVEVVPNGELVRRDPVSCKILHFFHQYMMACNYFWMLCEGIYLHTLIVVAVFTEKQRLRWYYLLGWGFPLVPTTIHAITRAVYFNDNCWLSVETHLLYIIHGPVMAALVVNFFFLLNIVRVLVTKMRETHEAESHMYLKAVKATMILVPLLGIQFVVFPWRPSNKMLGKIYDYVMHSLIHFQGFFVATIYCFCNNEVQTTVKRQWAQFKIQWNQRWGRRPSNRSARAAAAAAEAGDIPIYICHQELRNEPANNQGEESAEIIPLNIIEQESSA
T1 sequence (O60896 24-148 partner): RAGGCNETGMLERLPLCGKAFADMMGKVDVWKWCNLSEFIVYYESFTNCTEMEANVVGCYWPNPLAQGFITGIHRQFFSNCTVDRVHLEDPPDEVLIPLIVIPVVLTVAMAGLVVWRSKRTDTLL
Excerpt: (§1) 2. The polypeptide derivatives prepared in Example 1 and Example 2 of the present disclosure can bind to the target AMYR and CTR receptors on the cell membrane, activate the receptors and release cAMP. Therefore, the activity of the analyte can be determined by using an HTRF (homogeneous time-resolved fluorescence) method and using a cAMP detection kit. The specific steps were as follows:
(§2) A stable transfected cell line of HEK293/pGM-CREB-L-Luc/AMY3R pool and HEK293/pGM-CREB-L-Luc/CTR pool was constructed. The polypeptide derivatives (i.e., AMY-001 to AMY-041) prepared in Examples 1 and 2 were subjected to 5-fold serial dilution from a maximum of 1000 nM to prepare a dilution series containing 8 to 11 concentration gradients. Cagrilintide and sCT were selected as positive controls for testing, and a dilution series was prepared according to the same method for testing. The test cell lines were selected and treated with cAMP-specific trypsin for digestion, and then suspended with 3 mL of serum-free DMEM medium by pipetting, and the cells were counted. 5 μL of IBMX (prepared with serum-free DMEM medium, 0.5 mM) and test cells (5 μL/7500 cells/well) were sequentially added to a 384-well plate, incubated under the conditions of 37° C., 5% CO2 for 30 minutes, then added with cAMP-d2 (5 μL, 1×) and Anti-cAMP-Cryptate (5 μL, 1×) and placed at room temperature for 1 hour. A HTRF value was determined by a chemiluminescence microplate reader, and the results were recorded. An activation curve was plotted using GraphPad Prism software to calculate an IC50 value of each polypeptide derivative. […] The IC50 values of some polypeptides were exemplarily shown in this example, see Table 3, FIG. 2 and FIG. 3 for details.

CTR = biological target: T2, CTR (Homo sapiens, UniProt P30988); test: HTRF cAMP assay, CTR; type: cell-based; details: HEK293/pGM-CREB-L-Luc/CTR pool, read-out: IC50 of receptor CTR
T2 construct: expressed in transfected cells
T2 sequence (P30988 25-474): T1 sequence (P30988 25-474)
Excerpt: as §1, §2

[1] = Pharmacokinetic evaluation in SD rats; type: in vivo, male SD rat; details: plasma, rat
Method: 1. The pharmacokinetic behaviors of the polypeptide derivatives (i.e., AMY-001 to AMY-041) prepared in Example 1 and Example 2 in SD rats were tested.
Each polypeptide derivative (i.e., AMY-001 to AMY-041) was administered to male SD rat as a single injection via subcutaneous injection (SC, 3 mg/kg, with PBS as a medicament vehicle, a concentration of 1.5 mg/mL, and an administration volume of 2 mL) and intravenous injection (IV, 1 mg/kg, with PBS as a medicament vehicle, a concentration of 0.5 mg/mL, and an administration volume of 2 mL), respectively. After administration, whole blood samples were respectively collected from the jugular vein or other appropriate veins at selected time points. 0.2 mL of blood was collected and placed in a labeled EDTA-K2 anticoagulant tube. The tube was gently inverted up and down to ensure thorough mixing of the anticoagulant (EDTA-K2) with the blood, immediately placed on wet ice and centrifuged as soon as possible to separate plasma, and the centrifugation conditions were set to 4° C., 6800 g, and 6 minutes. Plasma samples were stored in a refrigerator at a temperature not exceeding −20° C. until subsequent analysis.
Under yellow light conditions in an ice water bath, (1) except for the blank sample, 300 μL of precipitant containing internal standard was added to a 96-well plate containing 20 μL of a standard curve sample, a quality control sample or an unknown sample; 300 μL of acetonitrile was added to the blank sample; (2) vortex mixing; (3) centrifugation; (4) 150 μL of supernatant was taken and added into a new 96-well plate, and then mixed well with 150 μL of ultrapure water; and (5) The above samples were quantitatively analyzed by using LC-MS analysis. Gradient elution was performed on a XB—C18 chromatographic column (2.1*100 mm, 3 μm), with the mobile phase as follows: mobile phase A=0.1% (volume percentage, v/v) formic acid-water; and mobile phase B=acetonitrile. Pharmacokinetic parameters were calculated using Phoenix WinNonlin software.

| EC50 (AMY3R) | EC50 (CTR) | AUC(0-inf) ([1]; 1 mg/kg, IV (1 mpk)) | clearance ([1]; 1 mg/kg, IV (1 mpk)) | half-life ([1]; 1 mg/kg, IV (1 mpk)) | AUC(0-inf) ([1]; 3 mg/kg, SC (3 mpk)) | Cmax ([1]; 3 mg/kg, SC (3 mpk)) | Tmax ([1]; 3 mg/kg, SC (3 mpk)) | bioavailability ([1]; 3 mg/kg, SC (3 mpk)) | half-life ([1]; 3 mg/kg, SC (3 mpk)) | SMILES |
| --- | --- | --- | --- | --- | --- | --- | --- | --- | --- | --- |
| 4.8 pM | 12.2 pM | 143 µg·h/mL | 0.117 mL/min/kg | 15.5 h | 283 µg·h/mL | 6830 ng/mL | 8 h | 65.9% | 15.6 h | CC(=O)N[C@@H](C)C(=O)N[C@@H](CO)C(=O)N[C@@H](Cc1c[nH]cn1)C(=O)N[C@@H](CC(C)C)C(=O)N[C@@H](CO)C(=O)N[C@H](C(=O)N[C@@H](C)C(=O)N[C@H]1CSCC(=O)NCCN(C(=O)CCC(=O)NCCOCCOCC(=O)NCCOCCOCC(=O)NCCCC[C@H](NC(=O)CCCCCCCCCCCCCCCCCCC(=O)O)C(=O)O)CCNC(=O)CSC[C@@H](C(=O)N[C@@H](CC(C)C)C(=O)N[C@@H](Cc2c[nH]cn2)C(=O)N[C@@](C)(CCCCN)C(=O)N[C@@H](CC(C)C)C(=O)NC(C)(C)C(=O)N[C@@H](CC(=O)O)C(=O)N[C@@H](Cc2ccc(O)cc2)C(=O)N2CCC[C@H]2C(=O)N(C)[C@@H](CCCNC(=N)N)C(=O)N[C@H](C(=O)N[C@@H](CC(=O)O)C(=O)N[C@H](C(=O)NCC(=O)N[C@@H](C)C(=O)NCC(=O)N[C@@H](CO)C(=O)N2C[C@H](O)C[C@H]2C(N)=O)C(C)C)[C@@H](C)O)NC(=O)[C@H](C)NC(=O)[C@H](CO)NC(=O)[C@H](CC(C)C)NC(=O)[C@H](CCCNC(=N)N)NC(=O)CNC(=O)[C@H](CC(C)C)NC1=O)[C@@H](C)O [AMY-011, Ac-ASHLSTACLGRLSACLH-(αMeK)-L-Aib-DYP-(N-Me-R)-TDVGAGS-Hyp-NH2] (Ac-ASHLSTACLGRLSACLH[αMeK]L[Aib]DYP[NMeR]TDVGAGS[Hyp]-NH2; linker 8-15 via X1) |
| 349 pM | 262 pM | – | – | – | – | – | – | – | – | CC(=O)N[C@@H](C)C(=O)N[C@@H](CO)C(=O)N[C@@H](Cc1c[nH]cn1)C(=O)N[C@@H](CC(C)C)C(=O)N[C@@H](CO)C(=O)N[C@H](C(=O)N[C@@H](C)C(=O)N[C@H](C(=O)N[C@@H](CC(C)C)C(=O)NCC(=O)N[C@@H](CCCNC(=N)N)C(=O)N[C@H]1CSCC(=O)NCCN(C(=O)CCC(=O)NCCOCCOCC(=O)NCCOCCOCC(=O)NCCCC[C@H](NC(=O)CCCCCCCCCCCCCCCCCCC(=O)O)C(=O)O)CCNC(=O)CSC[C@@H](C(=O)NC(C)(C)C(=O)N[C@@H](CC(=O)O)C(=O)N[C@@H](Cc2ccc(O)cc2)C(=O)N2CCC[C@H]2C(=O)N[C@@H](CCCNC(=N)N)C(=O)N[C@H](C(=O)N[C@@H](CC(=O)O)C(=O)N[C@H](C(=O)NCC(=O)N[C@@H](C)C(=O)NCC(=O)N[C@@H](CO)C(=O)N2CCC[C@H]2C(N)=O)C(C)C)[C@@H](C)O)NC(=O)[C@H](CCCCN)NC(=O)[C@H](Cc2c[nH]cn2)NC(=O)[C@H](CC(C)C)NC(=O)[C@H](CCC(=O)O)NC(=O)[C@H](C)NC(=O)[C@H](CO)NC1=O)C(C)C)[C@@H](C)O [AMY-007, Ac-ASHLSTAVLGRCSAELHKC-Aib-DYPRTDVGAGSP-NH2] (Ac-ASHLSTAVLGRCSAELHKC[Aib]DYPRTDVGAGSP-NH2; linker 12-19 via X1) |
| 4.4 pM | 1.2 pM | – | – | – | – | – | – | – | – | CC(=O)N[C@@H](C)C(=O)N[C@@H](CO)C(=O)N[C@@H](Cc1c[nH]cn1)C(=O)N[C@@H](CC(C)C)C(=O)N[C@@H](CO)C(=O)N[C@H](C(=O)N[C@@H](C)C(=O)N[C@H]1CCCCNC(=O)CN(C(=O)CCCNC(=O)COCCOCCNC(=O)COCCOCCNC(=O)CC[C@H](NC(=O)CCCCCCCCCCCCCCCCCCC(=O)O)C(=O)O)CC(=O)NCCCC[C@@H](C(=O)N[C@@H](CC(C)C)C(=O)N[C@@H](Cc2c[nH]cn2)C(=O)N[C@@](C)(CCCCN)C(=O)N[C@@H](CC(C)C)C(=O)NC(C)(C)C(=O)N[C@@H](CC(=O)O)C(=O)N[C@@H](Cc2ccc(O)cc2)C(=O)N2CCC[C@H]2C(=O)N[C@@H](CCC(N)=O)C(=O)N[C@H](C(=O)N[C@@H](CC(=O)O)C(=O)N[C@H](C(=O)NCC(=O)N[C@@H](C)C(=O)NCC(=O)N[C@@H](CO)C(=O)N2C[C@H](O)C[C@H]2C(N)=O)C(C)C)[C@@H](C)O)NC(=O)[C@H](C)NC(=O)[C@H](CO)NC(=O)[C@H](CC(C)C)NC(=O)[C@H](CCCNC(=N)N)NC(=O)CNC(=O)[C@H](CC(C)C)NC1=O)[C@@H](C)O [AMY-021, Ac-ASHLSTAKLGRLSAKLH-(αMeK)-L-Aib-DYPQTDVGAGS-Hyp-NH2] |
